From patent US7186829B1, “Aryl-substituted heterocyclic enaminones” (Bayer Aktiengesellschaft, priority 1999, dated 2007)

Experiments:
[1] = tested on: larva (L3) of the army worm (Spodoptera frugiperda); test: Spodoptera frugiperda test; type: in vivo; conditions: preparation pipetted onto synthetic feed, result in words
Protocol: Spodoptera frugiperda test • Solvent: 31 parts by weight of dimethylformamide • Emulsifier: 1 part by weight of alkylaryl polyglycol ether To produce a suitable preparation of active compound, 1 part by weight of active compound is mixed with the stated amount of solvent and the stated amount of emulsifier, and the concentrate is diluted with emulsifier-containing water to the desired concentration. A stated amount of the preparation of active compound of the desired concentration is pipetted onto a standardized amount of synthetic feed. In 6 repetitions, in each case one larva (L3) of the army worm (Spodoptera frugiperda) is placed on the feed. After the desired period of time, the kill in % is determined. 100% means that all animals have been killed; 0% means that none of the animals have been killed.

[2] = tested on: Heliothis virescens caterpillars; test: Heliothis virescens test; type: in vivo; conditions: soya bean shoots (Glycine max) dipped; result in words
Protocol: Heliothis virescens test • Solvent: 30 parts by weight of dimethylformamide • Emulsifier: 1 part by weight of alkylaryl polyglycol ether To produce a suitable preparation of active compound, 1 part by weight of active compound is mixed with the stated amounts of solvent and emulsifier, and the concentrate is diluted with emulsifier-containing water to the desired concentration. Soya bean shoots (Glycine max) are treated by being dipped into the preparation of active compound of the desired concentration and populated with Heliothis virescens caterpillars while the leaves are still moist. After the desired period of time, the kill in % is determined. 100% means that all caterpillars have been killed; 0% means that none of the caterpillars have been killed.

[3] = tested on: larvae of the mustard beetle (Phaedon cochleariae); test: Phaedon larvae test; type: in vivo; conditions: cabbage leaves (Brassica oleracea) dipped into preparation of active compound; result in words
Protocol: Phaedon larvae test • Solvent: 31 parts by weight of dimethylformamide • Emulsifier: I part by weight of alkylaryl polyglycol ether To produce a suitable preparation of active compound, 1 part by weight of active compound is mixed with the stated amounts of solvent and emulsifier, and the concentrate is diluted with emulsifier-containing water to the desired concentration. Cabbage leaves (Brassica oleracea) are treated by being dipped into the preparation of active compound of the desired concentration and populated with larvae of the mustard beetle (Phaedon cochleariae) while the leaves are still moist. After the desired period of time, the kill in % is determined. 100% means that all beetle larvae have been killed; 0% means that none of the beetle larvae have been killed.

[4] = tested on: common spider mite (Tetranychus urticae); test: Tetranychus test (OP resistent/dip treatment); type: in vivo; conditions: bean plants (Phaseolus vulgaris) infested by all stages, dip treatment, OP resistent; result in words
Protocol: Tetranychus test (OP resistent/dip treatment) • Solvent: 30 parts by weight of dimethylformamide • Emulsifier: 1 part by weight of alkylaryl polyglycol ether To produce a suitable preparation of active compound, 1 part by weight of active compound is mixed with the stated amounts of solvent and emulsifier, and the concentrate is diluted with emulsifier-containing water to the desired concentration. Bean plants (Phaseolus vulgaris) which are heavily infested by all stages of the common spider mite (Tetranychus urticae) are dipped into a preparation of active compound of the desired concentration. After the desired period of time, the kill in % is determined. 100% means that all spider mites have been killed; 0% means that none of the spider mites have been killed.

Compound	melting point [°C]	also measured
CC1OCCN/C1=C(/C#N)C(=O)c1cc(-c2ccc(Cl)cc2)cc(C(F)(F)F)c1 (centres unmarked) [I-1-a-37, 3-[3-(4-chlorophenyl)-5-trifluoromethylphenyl]-2-(2-methyl-1,4-oxazinon-3-ylidene)-3-oxopropionitrile]	119	–
CC1OCCNC1=C(C#N)C(=O)c1cc(C(F)(F)F)cc(C(F)(F)F)c1 (centres unmarked) [I-1-a-14, 3-[3,5-bis(trifluoromethyl)phenyl]-2-(2-methyl-1,4-oxazinan-3-ylidene)-3-oxopropionitrile]	142	activity (kill in %) against Spodoptera frugiperda larvae [1]: good activity; activity (kill in %) against Heliothis virescens caterpillars [2]: good activity
N#CC(C(=O)c1ccc(Cl)cc1)=C1COCCN1 [I-1-a-5, 3-(4-chlorophenyl)-2-(1,4-oxazinan-3-ylidene)-3-oxo-propionitrile]	192	–
CCC1COC(C)/C(=C(\C#N)C(=O)c2ccc(Cl)cc2)N1 (centres unmarked) [I-1-a-1, 3-(4-chlorophenyl)-2-(5-ethyl-2-methyl-1,4-oxazinon-3-ylidene)-3-oxopropionitrile]	136	–
CC1OCCN/C1=C(/C#N)C(=S)c1cc(C(F)(F)F)cc(C(F)(F)F)c1 (centres unmarked) [I-1-a-2, 3-[3,5-bis(trifluoromethyl)phenyl]-2-(2-methyl-1,4-oxazinan-3-ylidene)-3-thioxopropionitrile]	195	–
N#C/C(C(=O)c1cc(C(F)(F)F)cc(C(F)(F)F)c1)=C1\CS(=O)(=O)CCN1 [I-1-a-15, 3-[3,5-bis(trifluoromethyl)phenyl]-2-(1,1-dioxo-Iλ^6,4-thiazinan-3-ylidene)-3-oxo-propionitrile]	224 to 226	–
N#CC(C(=O)c1cc(C(F)(F)F)cc(C(F)(F)F)c1)=C1CSCCN1 [I-1-a-10, 3-[3,5-bis(trifluoromethyl)phenyl]-2-(1,4-thiazinan-3-ylidene)-3-oxo-propionitrile]	182	activity (kill in %) against Phaedon cochleariae larvae [3]: good activity; activity (kill in %) against Tetranychus urticae [4]: good activity
